# Publication PMC8330742, “New benzothieno[2,3-c]pyridines as non-steroidal CYP17 inhibitors: design, synthesis, anticancer screening, apoptosis induction, and in silico ADME profile studies” (Journal of Enzyme Inhibition and Medicinal Chemistry, 2021)
# Key:
# [1] = tested on: HCT-116; assay: NCI-60 SRB screen; format: cell-based, human; conditions: Homo sapiens; HCT-116; single dose 10^−5 M; read-out: Growth inhibition (%)
# [2] = tested on: MOLT-4; assay: NCI-60 SRB screen; format: cell-based; conditions: Homo sapiens; MOLT-4; single dose 10^−5 M; read-out: Growth inhibition (%)
# [3] = tested on: SK-OV-3; assay: NCI-60 SRB screen; format: cell-based, human; conditions: Homo sapiens; SK-OV-3; single dose 10^−5 M; read-out: Growth inhibition (%)
# [4] = tested on: HT-29; assay: NCI-60 SRB screen; format: cell-based; conditions: Homo sapiens; HT-29; single dose 10^−5 M; read-out: Growth inhibition (%)
# [5] = tested on: SK-MEL-2; assay: NCI-60 SRB screen; format: cell-based, human; conditions: Homo sapiens; SK-MEL-2; single dose 10^−5 M; read-out: Growth inhibition (%)
# [6] = tested on: NCI/ADR-RES; assay: NCI-60 SRB screen; format: cell-based, human; conditions: Homo sapiens, single dose 10^−5 M, read-out: Growth inhibition (%)
# [7] = tested on: HCT-15; assay: NCI-60 SRB screen; format: cell-based, human; conditions: Homo sapiens; HCT-15; single dose 10^−5 M; read-out: Growth inhibition (%)
# [8] = tested on: HOP-62; assay: NCI-60 SRB screen; format: cell-based, human; conditions: Homo sapiens; HOP-62; single dose 10^−5 M; read-out: Growth inhibition (%)
# [9] = tested on: A549/ATCC; assay: NCI-60 SRB screen; format: cell-based, human; conditions: Homo sapiens, single dose 10^−5 M, read-out: Growth inhibition (%)
# [10] = tested on: ACHN; assay: NCI-60 SRB screen; format: cell-based; conditions: Homo sapiens, single dose 10^−5 M, read-out: Growth inhibition (%)
# [11] = tested on: LOX IMVI; assay: NCI-60 SRB screen; format: cell-based, human; conditions: Homo sapiens, single dose 10^−5 M, read-out: Growth inhibition (%)
# [12] = tested on: KM12; assay: NCI-60 SRB screen; format: cell-based, human; conditions: Homo sapiens; KM12; single dose 10^−5 M; read-out: Growth inhibition (%)
# [13] = tested on: HL-60(TB); assay: NCI-60 SRB screen; format: cell-based, human; conditions: Homo sapiens; HL-60 (TB); single dose 10^−5 M; read-out: Growth inhibition (%)
# [14] = tested on: SK-MEL-28; assay: NCI-60 SRB screen; format: cell-based; conditions: Homo sapiens; SK-MEL-28; single dose 10^−5 M; read-out: Growth inhibition (%)
# [15] = tested on: OVCAR-3; assay: NCI-60 SRB screen; format: cell-based, human; conditions: Homo sapiens; OVCAR-3; single dose 10^−5 M; read-out: Growth inhibition (%)
# [16] = tested on: UACC-257; assay: NCI-60 SRB screen; format: cell-based, human; conditions: Homo sapiens, UACC-257; UACC-275 (so in the source); single dose 10^−5 M; read-out: Growth inhibition (%)
# [17] = tested on: UACC-62; assay: NCI-60 SRB screen; format: cell-based, human; conditions: Homo sapiens; UACC-62; single dose 10^−5 M; read-out: Growth inhibition (%)
# [18] = tested on: NCI-H226; assay: NCI-60 SRB screen; format: cell-based, human; conditions: Homo sapiens; NCI-H226; single dose 10^−5 M; read-out: Growth inhibition (%)
# [19] = tested on: SN12C; assay: NCI-60 SRB screen; format: cell-based, human; conditions: Homo sapiens, SN12C; SN 12 C; single dose 10^−5 M; read-out: Growth inhibition (%)
# [20] = tested on: SR; assay: NCI-60 SRB screen; format: cell-based; conditions: Homo sapiens, single dose 10^−5 M, read-out: Growth inhibition (%)
# [21] = tested on: CAKI-1; assay: NCI-60 SRB screen; format: cell-based, human; conditions: Homo sapiens; CAKI-1; single dose 10^−5 M; read-out: Growth inhibition (%)
# [22] = tested on: NCI-H23; assay: NCI-60 SRB screen; format: cell-based, human; conditions: Homo sapiens; NCI-H23; single dose 10^−5 M; read-out: Growth inhibition (%)
# [23] = tested on: COLO 205; assay: NCI-60 SRB screen; format: cell-based, human; conditions: Homo sapiens; COLO 205; single dose 10^−5 M; read-out: Growth inhibition (%)
# [24] = tested on: MALME-3M; assay: NCI-60 SRB screen; format: cell-based, human; conditions: Homo sapiens, single dose 10^−5 M, read-out: Growth inhibition (%)
# [25] = tested on: MDA-MB-435; assay: NCI-60 SRB screen; format: cell-based; conditions: Homo sapiens, MDA-MB-435, read-out: Growth inhibition (%)
# [26] = tested on: UO-31; assay: NCI-60 SRB screen; format: cell-based, human; conditions: Homo sapiens; UO-31; single dose 10^−5 M; read-out: Growth inhibition (%)
# [27] = tested on: SF-295; assay: NCI-60 SRB screen; format: cell-based, human; conditions: Homo sapiens; SF-295; single dose 10^−5 M; read-out: Growth inhibition (%)
# [28] = tested on: K-562; assay: NCI-60 SRB screen; format: cell-based, human; conditions: Homo sapiens, K562; K-562; single dose 10^−5 M; read-out: Growth inhibition (%)
# [29] = tested on: HOP-92; assay: NCI-60 SRB screen; format: cell-based, human; conditions: Homo sapiens; HOP-92; single dose 10^−5 M; read-out: Growth inhibition (%)
# [30] = tested on: NCI-H322M; assay: NCI-60 SRB screen; format: cell-based, human; conditions: Homo sapiens, single dose 10^−5 M, read-out: Growth inhibition (%)
# [31] = tested on: SK-MEL-5; assay: NCI-60 SRB screen; format: cell-based, human; conditions: Homo sapiens; SK-MEL-5; single dose 10^−5 M; read-out: Growth inhibition (%)
# [32] = tested on: TK-10; assay: NCI-60 SRB screen; format: cell-based, human; conditions: Homo sapiens; TK-10; single dose 10^−5 M; read-out: Growth inhibition (%)
# [33] = tested on: CCRF-CEM; assay: NCI-60 SRB screen; format: cell-based; conditions: Homo sapiens, single dose 10^−5 M, read-out: Growth inhibition (%)
# [34] = tested on: NCI-H522; assay: NCI-60 SRB screen; format: cell-based, human; conditions: Homo sapiens; NCI-H522; single dose 10^−5 M; read-out: Growth inhibition (%)
# [35] = tested on: NCI-H460; assay: NCI-60 SRB screen; format: cell-based, human; conditions: Homo sapiens; NCI-H460; single dose 10^−5 M; read-out: Growth inhibition (%)
# [36] = tested on: HCC-2998; assay: NCI-60 SRB screen; format: cell-based, human; conditions: Homo sapiens; HCC-2998; single dose 10^−5 M; read-out: Growth inhibition (%)
# [37] = tested on: 786-0; assay: NCI-60 SRB screen; format: cell-based; conditions: Homo sapiens; 786-0; single dose 10^−5 M; read-out: Growth inhibition (%)
# [38] = tested on: M14; assay: NCI-60 SRB screen; format: cell-based, human; conditions: Homo sapiens; M14; single dose 10^−5 M; read-out: Growth inhibition (%)
# [39] = tested on: IGROV1; assay: NCI-60 SRB screen; format: cell-based, human; conditions: Homo sapiens, IGROV-1; IGROV1; single dose 10^−5 M; read-out: Growth inhibition (%)
# [40] = tested on: SF-268; assay: NCI-60 SRB screen; format: cell-based, human; conditions: Homo sapiens; SF-268; single dose 10^−5 M; read-out: Growth inhibition (%)
# [41] = tested on: EKVX; assay: NCI-60 SRB screen; format: cell-based, human; conditions: Homo sapiens, single dose 10^−5 M, read-out: Growth inhibition (%)
# [42] = tested on: RXF 393; assay: NCI-60 SRB screen; format: cell-based, human; conditions: Homo sapiens; RXF 393; single dose 10^−5 M; read-out: Growth inhibition (%)
# [43] = tested on: OVCAR-4; assay: NCI-60 SRB screen; format: cell-based, human; conditions: Homo sapiens; OVCAR-4; single dose 10^−5 M; read-out: Growth inhibition (%)
# [44] = tested on: SW-620; assay: NCI-60 SRB screen; format: cell-based; conditions: Homo sapiens; SW-620; single dose 10^−5 M; read-out: Growth inhibition (%)
# [45] = tested on: panel of 60 cancer cell lines; assay: NCI-60 SRB screen, mean or range over the panel; format: cell-based, human; conditions: Homo sapiens; mean over the cell lines; single dose 10^−5 M; read-out: Mean growth inhibition (%)
smiles,measurement,setting,value
"O=C1NC(c2cccc([N+](=O)[O-])c2)c2sc3c(F)cccc3c2C1N1CCOCC1 (stereo not drawn) [Compound 6b, 8-Fluoro-4-morpholino-1(3-nitrophenyl)-1,2-dihydro[1]benzothieno[2,3-c]pyridin-3(4H)-one]",inhibition at 10 µM,[1],12.5%
same,inhibition at 10 µM,[2],7.9%
same,inhibition at 10 µM,[3],0.4%
same,inhibition at 10 µM,[4],3.1%
same,inhibition at 10 µM,[5],-12.7%
same,inhibition at 10 µM,[6],1.78%
same,inhibition at 10 µM,[7],-4.99%
same,inhibition at 10 µM,[8],12.7%
same,inhibition at 10 µM,[9],-0.83%
same,inhibition at 10 µM,[10],4.34%
same,inhibition at 10 µM,[11],-0.6%
same,inhibition at 10 µM,[12],2.35%
same,inhibition at 10 µM,[13],3%
same,inhibition at 10 µM,[14],-11.5%
same,inhibition at 10 µM,[15],1.9%
same,inhibition at 10 µM,[16],-10.7%
same,inhibition at 10 µM,[17],3.55%
same,inhibition at 10 µM,[18],19.4%
same,inhibition at 10 µM,[19],2.85%
same,inhibition at 10 µM,[20],14.4%
same,inhibition at 10 µM,[21],23%
same,inhibition at 10 µM,[22],5.78%
same,inhibition at 10 µM,[23],-10.9%
same,inhibition at 10 µM,[24],0.18%
same,inhibition at 10 µM,[25],-9.63%
same,inhibition at 10 µM,[26],31.8%
same,inhibition at 10 µM,[27],1.1%
same,inhibition at 10 µM,[28],6.63%
same,inhibition at 10 µM,[29],13.3%
same,inhibition at 10 µM,[30],-2.43%
same,inhibition at 10 µM,[31],0.57%
same,inhibition at 10 µM,[32],-28.2%
same,inhibition at 10 µM,[33],-0.89%
same,inhibition at 10 µM,[34],10.4%
same,inhibition at 10 µM,[35],0.21%
same,inhibition at 10 µM,[36],-9.62%
same,inhibition at 10 µM,[37],-11.1%
same,inhibition at 10 µM,[38],-1.23%
same,inhibition at 10 µM,[39],21.5%
same,inhibition at 10 µM,[40],6.1%
same,inhibition at 10 µM,[41],2.98%
same,inhibition at 10 µM,[42],6.95%
same,inhibition at 10 µM,[43],0.3%
same,inhibition at 10 µM,[44],7.48%
same,inhibition at 10 µM,[45],3.19%
